Experimental data taken from patent publication US20180243298A1, “TRPV3 MODULATORS” (AbbVie Inc., priority 2015, published 2018).
Read-outs that look alike come from different tables or passages of the source.

Experiments:
[1] = test system: FITC-challenged mice; assay: Contact hypersensitivity (CHS) to FITC, ear swelling in mice; assay type: in vivo, mice (BALB/c); conditions: Mus musculus, reduction in ear skin thickness vs vehicle, 24 hours after FITC challenge, read-out: FITC % effect
Procedure: (ii) In vivo Data The following protocol was used to evaluate the efficacy of a compound against contact hypersensitivity:
Young adult female BALB/c mice (18±2 g body weight at 6-8 weeks old) Charles River Laboratories) were maintained under pathogen-free conditions and housed in an animal room maintained t at temperature of 21±1° C. and a humidity of 43±5%. Induction of contact hypersensitivity (CHS) and ear thickness measurements for all animals were carried out under light anesthesia (3-5% isoflurane/oxygen) for 1-2 minutes.
Contact hypersensitivity consists of the afferent or initiation sensitizing phase, and the efferent or elicitation phase. The latter phase occurs when epidermal cells encounter a particular antigen to which the epidermal cells have previously been exposed, and is characterized in rodents by localized swelling in the skin.
Fluorescein isothiocyanate (FITC) was purchased from Sigma-Aldrich and dissolved in 1:1 in acetone/dibutylphthalate prior to epicutaneous application. Mice were sensitized by painting epicutaneously 40 uL of 0.5% FITC on the abdomen ventral skin shaved one day prior to sensitization. Six days later, mice were challenged by painting epicutaneously 20 uL total volume of 0.5% FITC on the right ear (10 uL on either side). Control mice were treated with vehicle only. Ear swelling was measured 24 hours after challenge. Treatment groups were dosed orally at a dose volume of 10 mL/kg with compounds either BID (1 hour prior to FITC challenge, 8 hours after first dose and 2 hours prior to ear swelling measurement at 24 hours post FITC challenge) or QD (1 hour prior to FITC challenge and 2 hours prior to ear swelling measurement at 24 hours post FITC challenge). Inflammation was determined by the degree of ear swelling of the hapten exposed ear compared with the untreated ear with a Quick Mini thickness-gauge caliber (Mitutoyo, Japan). The change in ear thickness after allergen treatment can be used to calculate the percent suppression of contact hypersensitivity.
The level of compound-mediated suppression of ear skin thickness in FITC-challenged mice is indicated in Table 2 wherein “A” refers to a reduction in ear skin thickness of >50%, “B” refers to a reduction in ear skin thickness of 30-50% and “C” refers to a reduction in ear skin thickness of <30% relative to vehicle-treated animals.

[2] = biological target: T1, human TRPV3 (Homo sapiens, UniProt Q8NET8); assay: Calcium flux assay (FLIPR TETRA), recombinant HEK293 cells expressing TRPV3, 2-APB response; assay type: cell-based; conditions: 2-APB at its EC80
T1 construct: expressed in transfected cells; host or cells: HEK293
T1 sequence (Q8NET8 1-790): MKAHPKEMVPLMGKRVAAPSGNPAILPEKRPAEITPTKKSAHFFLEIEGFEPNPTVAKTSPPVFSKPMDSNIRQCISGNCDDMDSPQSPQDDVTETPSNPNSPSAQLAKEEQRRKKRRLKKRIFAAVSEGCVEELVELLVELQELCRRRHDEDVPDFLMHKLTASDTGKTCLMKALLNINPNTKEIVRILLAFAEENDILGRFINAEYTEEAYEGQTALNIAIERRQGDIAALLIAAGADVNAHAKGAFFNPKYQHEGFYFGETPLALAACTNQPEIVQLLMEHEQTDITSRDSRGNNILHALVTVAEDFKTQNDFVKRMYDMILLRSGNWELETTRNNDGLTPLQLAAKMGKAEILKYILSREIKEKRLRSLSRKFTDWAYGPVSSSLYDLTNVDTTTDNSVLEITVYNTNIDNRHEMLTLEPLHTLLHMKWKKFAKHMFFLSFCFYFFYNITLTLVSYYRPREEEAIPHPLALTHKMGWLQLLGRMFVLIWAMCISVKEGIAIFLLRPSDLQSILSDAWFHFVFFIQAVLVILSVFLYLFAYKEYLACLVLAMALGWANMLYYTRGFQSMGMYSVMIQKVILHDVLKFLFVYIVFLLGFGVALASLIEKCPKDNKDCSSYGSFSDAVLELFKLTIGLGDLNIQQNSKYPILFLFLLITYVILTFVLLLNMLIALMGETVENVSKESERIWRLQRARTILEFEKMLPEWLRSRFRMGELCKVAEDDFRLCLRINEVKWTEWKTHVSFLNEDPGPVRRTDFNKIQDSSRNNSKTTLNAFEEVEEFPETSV
In short: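 Response is the peak fluorescence increase over baseline, as a percentage of the compound-free response to 2-APB at EC80. Calcium flux recorded on FLIPR TETRA in stable human or mouse TRPV3 HEK293 cells after 90–120 min Calcium-4 dye loading.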

| IC50 [2] [µM] | Compound | other results |
| --- | --- | --- |
| 0.05 to 0.1 | COc1ncnc(OC)c1C(=O)Nc1nc(C(F)(F)F)c(-c2cncc(F)c2)s1 [Example 27, N-[5-(5-fluoropyridin-3-yl)-4-(trifluoromethyl)-1,3-thiazol-2-yl]-4,6-dimethoxypyrimidine-5-carboxamide] | inhibition in vivo at 30 mg/kg ([1]; 30 mg/kg bid po): < 30% |
| < 0.05 | COc1ncnc(OC)c1C(=O)Nc1nc(C(F)(F)F)c(-c2cccc(C#N)n2)s1 [Example 31, N-[5-(6-cyanopyridin-2-yl)-4-(trifluoromethyl)-1,3-thiazol-2-yl]-4,6-dimethoxypyrimidine-5-carboxamide] | inhibition in vivo at 30 mg/kg ([1]; 30 mg/kg qd po): > 50% |
| 0.05 to 0.1 | COc1ncnc(OC)c1C(=O)Nc1nc(C(F)(F)F)c(-c2ccnc(C(C)(C)C#N)c2)s1 [Example 33, N-{5-[2-(2-cyanopropan-2-yl)pyridin-4-yl]-4-(trifluoromethyl)-1,3-thiazol-2-yl}-4,6-dimethoxypyrimidine-5-carboxamide] | inhibition in vivo at 30 mg/kg ([1]; 30 mg/kg qd po): > 50% |
| < 0.05 | COc1ncnc(OC)c1C(=O)Nc1nc(C(F)(F)F)c(-c2cccc(C#N)c2)s1 [Example 40, N-[5-(3-cyanophenyl)-4-(trifluoromethyl)-1,3-thiazol-2-yl]-4,6-dimethoxypyrimidine-5-carboxamide] | inhibition in vivo at 30 mg/kg ([1]; 30 mg/kg bid po): < 30% |
| < 0.05 | COc1ncnc(OC)c1C(=O)Nc1nc(C(F)(F)F)c(-c2cccnc2C#N)s1 [Example 42, N-[5-(2-cyanopyridin-3-yl)-4-(trifluoromethyl)-1,3-thiazol-2-yl]-4,6-dimethoxypyrimidine-5-carboxamide] | inhibition in vivo at 30 mg/kg ([1]; 30 mg/kg bid po): < 30% |
| 0.1 to 0.5 | COc1ncnc(OC)c1C(=O)Nc1nc(C(F)(F)F)c(CN2CCC(OC)CC2)s1 [Example 48, 4,6-dimethoxy-N-{5-[(4-methoxypiperidin-1-yl)methyl]-4-(trifluoromethyl)-1,3-thiazol-2-yl}pyrimidine-5-carboxamide] | inhibition in vivo at 30 mg/kg ([1]; 30 mg/kg bid po): < 30% |
| 0.05 to 0.1 | COc1ncnc(OC)c1C(=O)Nc1nc(C(F)(F)F)c(CNCC(C)C)s1 [Example 52, 4,6-dimethoxy-N-[5-{[(2-methylpropyl)amino]methyl}-4-(trifluoromethyl)-1,3-thiazol-2-yl]pyrimidine-5-carboxamide] | inhibition in vivo at 10 mg/kg ([1]; 10 mg/kg qd po): 30 to 50% |
| < 0.05 | COc1ncnc(OC)c1C(=O)Nc1nc(C(F)(F)F)c(CN2CCC(F)CC2)s1 [Example 53, N-{5-[(4-fluoropiperidin-1-yl)methyl]-4-(trifluoromethyl)-1,3-thiazol-2-yl}-4,6-dimethoxypyrimidine-5-carboxamide] | inhibition in vivo at 10 mg/kg ([1]; 10 mg/kg bid po): 30 to 50% |
| 0.05 to 0.1 | COc1ncnc(OC)c1C(=O)Nc1nc(C(F)(F)F)c(CN2CC[C@@H](F)C2)s1 [Example 58, N-[5-{[(3R)-3-fluoropyrrolidin-1-yl]methyl}-4-(trifluoromethyl)-1,3-thiazol-2-yl]-4,6-dimethoxypyrimidine-5-carboxamide] | inhibition in vivo at 10 mg/kg ([1]; 10 mg/kg qd po): 30 to 50% |
| < 0.05 | COc1ncnc(OC)c1C(=O)Nc1nc(C(F)(F)F)c(-c2cccnc2C)s1 [Example 64, 4,6-dimethoxy-N-[5-(2-methylpyridin-3-yl)-4-(trifluoromethyl)-1,3-thiazol-2-yl]pyrimidine-5-carboxamide] | inhibition in vivo at 30 mg/kg ([1]; 30 mg/kg qd po): 30 to 50% |
| < 0.05 | COc1ncnc(OC)c1C(=O)Nc1nc(C(F)(F)F)c(-c2cc(C(F)(F)F)nn2C)s1 [Example 65, 4,6-dimethoxy-N-{5-[1-methyl-3-(trifluoromethyl)-1H-pyrazol-5-yl]-4-(trifluoromethyl)-1,3-thiazol-2-yl}pyrimidine-5-carboxamide] | inhibition in vivo at 30 mg/kg ([1]; 30 mg/kg bid po): < 30% |
| – | COc1ncnc(OC)c1C(=O)N(COP(=O)(O)O)c1nc(-c2ccc(C(F)(F)F)cn2)cs1 [Example 74, ([(4,6-dimethoxypyrimidin-5-yl)carbonyl]{4-[5-(trifluoromethyl)pyridin-2-yl]-1,3-thiazol-2-yl}amino)methyl dihydrogen phosphate] | inhibition in vivo at 100 mg/kg ([1]; 100 mg/kg bid po): > 50% |
| 0.05 to 0.1 | COc1ncnc(OC)c1C(=O)Nc1nc(C(F)(F)F)c(-c2cccc(S(=O)(=O)N3CCOCC3)c2)s1 [Example 195, 4,6-dimethoxy-N-{5-[3-(morpholin-4-ylsulfonyl)phenyl]-4-(trifluoromethyl)-1,3-thiazol-2-yl}pyrimidine-5-carboxamide] | – |
| < 0.05 | COCCN(C)S(=O)(=O)c1cccc(-c2sc(NC(=O)c3c(OC)ncnc3OC)nc2C(F)(F)F)c1 [Example 197, 4,6-dimethoxy-N-[5-{3-[(2-methoxyethyl)(methyl)sulfamoyl]phenyl}-4-(trifluoromethyl)-1,3-thiazol-2-yl]pyrimidine-5-carboxamide] | – |
| < 0.05 | COc1ncnc(OC)c1C(=O)Nc1nc(C(F)(F)F)c(-c2ccc(CN3CCOCC3)cc2)s1 [Example 198, 4,6-dimethoxy-N-{5-[4-(morpholin-4-ylmethyl)phenyl]-4-(trifluoromethyl)-1,3-thiazol-2-yl}pyrimidine-5-carboxamide] | – |
| < 0.05 | CCn1cc(-c2sc(NC(=O)c3c(OC)ncnc3OC)nc2C(F)(F)F)c(C)n1 [Example 200, N-[5-(1-ethyl-3-methyl-1H-pyrazol-4-yl)-4-(trifluoromethyl)-1,3-thiazol-2-yl]-4,6-dimethoxypyrimidine-5-carboxamide] | – |
| 0.05 to 0.1 | COc1ncnc(OC)c1C(=O)Nc1nc(C(F)(F)F)c(-c2cccc(NS(=O)(=O)N(C)C)c2)s1 [Example 201, N-[5-{3-[(dimethylsulfamoyl)amino]phenyl}-4-(trifluoromethyl)-1,3-thiazol-2-yl]-4,6-dimethoxypyrimidine-5-carboxamide] | – |
| < 0.05 | COc1ncnc(OC)c1C(=O)Nc1nc(C(F)(F)F)c(-c2cnc(C3CC3)nc2)s1 [Example 203, N-[5-(2-cyclopropylpyrimidin-5-yl)-4-(trifluoromethyl)-1,3-thiazol-2-yl]-4,6-dimethoxypyrimidine-5-carboxamide] | – |
| < 0.05 | COc1ncnc(OC)c1C(=O)Nc1nc(C(F)(F)F)c(-c2cnc(N3CCOCC3)c(C#N)c2)s1 [Example 204, N-{5-[5-cyano-6-(morpholin-4-yl)pyridin-3-yl]-4-(trifluoromethyl)-1,3-thiazol-2-yl}-4,6-dimethoxypyrimidine-5-carboxamide] | – |
| 0.1 to 0.5 | COc1ncnc(OC)c1C(=O)Nc1nc(C(F)(F)F)c(-c2cnc(C#N)c(OCC3COC3)c2)s1 [Example 205, N-(5-(6-cyano-5-(oxetan-3-yl-methoxy)pyridine-3-yl)-4-(trifluoromethyl)thiazol-2-yl)-4,6-dimethoxypyrimidine-5-carboxamide] | – |
| 0.1 to 0.5 | COCc1sc(NC(=O)c2c(OC)ncnc2OC)nc1C(F)(F)F [Example 206, 4,6-dimethoxy-N-(5-(methoxymethyl)-4-(trifluoromethyl)thiazol-2-yl)pyrimidine-5-carboxamide] | – |
